# Legend:
# [1] = target: Serine/threonine-protein kinase PLK3 (Homo sapiens, UniProt Q9H4B4); assay: Selectivity interaction (Millipore kinase profiler) EUB0000124b PLK3; details: at 10 µM
# [2] = target: RAC-beta serine/threonine-protein kinase (Homo sapiens) (UniProt P31751); assay: Selectivity interaction (Millipore kinase profiler) EUB0000124b AKT2; details: at 10 µM
# [3] = target: Serine/threonine-protein kinase MRCK gamma (Homo sapiens) (UniProt Q6DT37); assay: Selectivity interaction (KinomeScan (DiscoverX)) EUB0000229b CDC42BPG; details: at 10 µM
# [4] = target: T1, MAP kinase-activated protein kinase 5 (Homo sapiens) (UniProt Q8IW41); assay: Selectivity interaction (KinomeScan (DiscoverX)) EUB0000229b MAPKAPK5; details: at 10 µM
# T1 sequence (whole entry): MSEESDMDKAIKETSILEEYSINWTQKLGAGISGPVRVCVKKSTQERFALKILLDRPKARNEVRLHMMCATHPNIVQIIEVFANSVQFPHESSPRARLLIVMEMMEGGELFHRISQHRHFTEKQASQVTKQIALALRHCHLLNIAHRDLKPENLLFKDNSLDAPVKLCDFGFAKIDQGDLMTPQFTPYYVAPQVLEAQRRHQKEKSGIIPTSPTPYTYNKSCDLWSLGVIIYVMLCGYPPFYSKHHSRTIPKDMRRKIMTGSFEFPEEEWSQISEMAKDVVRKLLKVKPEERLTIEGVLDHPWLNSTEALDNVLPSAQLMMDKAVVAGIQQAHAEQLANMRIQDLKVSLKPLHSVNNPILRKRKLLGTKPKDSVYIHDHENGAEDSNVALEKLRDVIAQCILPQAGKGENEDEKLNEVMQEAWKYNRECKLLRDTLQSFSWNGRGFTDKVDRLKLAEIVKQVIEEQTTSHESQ
# [5] = system: Tyrosine-protein kinase ABL1 (Homo sapiens), P00519 [F317I]; assay: Selectivity interaction (KinomeScan (DiscoverX)) EUB0000229b ABL1; details: at 1 µM
# [6] = target: High affinity choline transporter 1 (Homo sapiens) (UniProt Q9GZV3); assay: Selectivity interaction (Eurofins CEREP Diversity Profile (receptors and ion channels)) EUB0000279b SLC5A7; details: at 10 µM
# [7] = target: Mitotic checkpoint serine/threonine-protein kinase BUB1 (Homo sapiens, UniProt O43683); assay: Selectivity interaction (KinomeScan (DiscoverX)) EUB0001079a BUB1; details: at 1 µM
# [8] = target: Serine/threonine-protein kinase PRP4 homolog (Homo sapiens) (UniProt Q13523); assay: Selectivity interaction (Kinase panel (KiNativ target engagement assay in Jurkat cells)) EUB0001635a PRPF4; type: cell-based; details: Selectivity number of off-targets 0.0, Selectivity number of targets 233.0, Source Knowledge https://www.sciencedirect.com/science/article/pii/S2451945619300674?via%3Dihub, at 1 µM
# [9] = target: E3 ubiquitin-protein ligase TRIM33 (Homo sapiens) (UniProt Q9UPN9); assay: Selectivity interaction (Human bromodomain panel (DSF assay)) EUB0000233b TRIM33
# [10] = target: ATPase family AAA domain-containing protein 2 (Homo sapiens) (UniProt Q6PL18); assay: Selectivity interaction (Bromodomain panel (DSF asssay)) EUB0000270b ATAD2
# [11] = target: Histone-lysine N-methyltransferase EZH2 (Homo sapiens) (UniProt Q15910); assay: Selectivity interaction (Transferase panel (protein, RNA, and DNA methyltransferases. and EP300 (acetyltransferase))) EUB0000270b EZH2
# [12] = target: RAC-gamma serine/threonine-protein kinase (Homo sapiens, UniProt Q9Y243); assay: Selectivity interaction (KinomeScan (DiscoverX)) EUB0000595a AKT3; details: at 10 µM
# [13] = system: Phosphatidylinositol 4,5-bisphosphate 3-kinase catalytic subunit alpha isoform (Homo sapiens), P42336 [I800L]; details: at 10 µM
# [14] = target: Cyclin-dependent kinase 17 (Homo sapiens) (UniProt Q00537); assay: Selectivity interaction (Ambit KINOMEscan and KiNATiv profiling in Jurkat cells) EUB0000090b CDK17; type: cell-based; details: at 1 µM
# [15] = system: Epidermal growth factor receptor (Homo sapiens), P00533 [UNDEFINED MUTATION]; assay: Selectivity interaction (Ambit KINOMEscan and KiNATiv profiling in Jurkat cells) EUB0000090b EGFR; type: cell-based; details: at 1 µM
# [16] = target: NT-3 growth factor receptor (Homo sapiens, UniProt Q16288); assay: Selectivity interaction (KinomeScan (DiscoverX)) EUB0000045b NTRK3
# [17] = target: Dual specificity protein kinase CLK1 (Homo sapiens, UniProt P49759); assay: Selectivity interaction (KinomeScan (DiscoverX)) EUB0000045b CLK1
# Insulin receptor = Insulin receptor (Homo sapiens, UniProt P06213); assay: Selectivity interaction (KinomeScan (DiscoverX)) EUB0000618a INSR; details: at 10 µM
# [18] = target: Tyrosine-protein kinase Lyn (Homo sapiens, UniProt P07948); assay: Selectivity interaction (Upstate Kinase Profiler service (Millipore)) EUB0000056c LYN; details: at 1 µM
# [19] = target: Epidermal growth factor receptor (Homo sapiens, UniProt P00533); assay: Selectivity interaction (Upstate Kinase Profiler service (Millipore)) EUB0000056c EGFR; details: at 1 µM
# [20] = target: Calcium/calmodulin-dependent protein kinase type II subunit alpha (Homo sapiens, UniProt Q9UQM7); assay: Selectivity interaction (SelectScreen profiling (Invitrogen)) EUB0000607a CAMK2A; details: at 2 µM
# SRSF protein kinase 1 = SRSF protein kinase 1 (Homo sapiens, UniProt Q96SB4); assay: Selectivity interaction (KinomeScan (DiscoverX)) EUB0000607a SRPK1; details: at 10 µM
# [21] = target: T2, N-lysine methyltransferase KMT5A (Homo sapiens) (UniProt Q9NQR1); assay: Selectivity interaction (Methyltransferase screen (radiometric assays, panel of 8 PRMTs, 21 protein lysine methyltransferases, 3 DNA methyltransferases, and one RNA methyltransferase)) EUB0000271b SETD8
# T2 sequence (whole entry): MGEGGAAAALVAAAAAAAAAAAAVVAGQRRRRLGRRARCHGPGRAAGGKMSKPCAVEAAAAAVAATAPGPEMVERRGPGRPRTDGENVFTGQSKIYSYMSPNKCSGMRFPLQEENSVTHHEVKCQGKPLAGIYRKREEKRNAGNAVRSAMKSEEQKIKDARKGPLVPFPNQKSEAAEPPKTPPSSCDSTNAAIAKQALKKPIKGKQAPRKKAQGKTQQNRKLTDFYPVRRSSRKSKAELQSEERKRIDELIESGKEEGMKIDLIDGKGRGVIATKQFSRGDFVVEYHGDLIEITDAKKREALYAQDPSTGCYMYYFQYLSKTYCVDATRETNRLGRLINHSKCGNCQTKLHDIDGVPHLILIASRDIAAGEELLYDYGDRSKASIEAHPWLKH
# [22] = target: Ephrin type-A receptor 2 (Homo sapiens) (UniProt P29317); assay: Selectivity interaction (ProQinase) EUB0000171b EPHA2
# Chain of Ephrin type-A receptor 2 (Homo sapiens) (P29317 whole entry): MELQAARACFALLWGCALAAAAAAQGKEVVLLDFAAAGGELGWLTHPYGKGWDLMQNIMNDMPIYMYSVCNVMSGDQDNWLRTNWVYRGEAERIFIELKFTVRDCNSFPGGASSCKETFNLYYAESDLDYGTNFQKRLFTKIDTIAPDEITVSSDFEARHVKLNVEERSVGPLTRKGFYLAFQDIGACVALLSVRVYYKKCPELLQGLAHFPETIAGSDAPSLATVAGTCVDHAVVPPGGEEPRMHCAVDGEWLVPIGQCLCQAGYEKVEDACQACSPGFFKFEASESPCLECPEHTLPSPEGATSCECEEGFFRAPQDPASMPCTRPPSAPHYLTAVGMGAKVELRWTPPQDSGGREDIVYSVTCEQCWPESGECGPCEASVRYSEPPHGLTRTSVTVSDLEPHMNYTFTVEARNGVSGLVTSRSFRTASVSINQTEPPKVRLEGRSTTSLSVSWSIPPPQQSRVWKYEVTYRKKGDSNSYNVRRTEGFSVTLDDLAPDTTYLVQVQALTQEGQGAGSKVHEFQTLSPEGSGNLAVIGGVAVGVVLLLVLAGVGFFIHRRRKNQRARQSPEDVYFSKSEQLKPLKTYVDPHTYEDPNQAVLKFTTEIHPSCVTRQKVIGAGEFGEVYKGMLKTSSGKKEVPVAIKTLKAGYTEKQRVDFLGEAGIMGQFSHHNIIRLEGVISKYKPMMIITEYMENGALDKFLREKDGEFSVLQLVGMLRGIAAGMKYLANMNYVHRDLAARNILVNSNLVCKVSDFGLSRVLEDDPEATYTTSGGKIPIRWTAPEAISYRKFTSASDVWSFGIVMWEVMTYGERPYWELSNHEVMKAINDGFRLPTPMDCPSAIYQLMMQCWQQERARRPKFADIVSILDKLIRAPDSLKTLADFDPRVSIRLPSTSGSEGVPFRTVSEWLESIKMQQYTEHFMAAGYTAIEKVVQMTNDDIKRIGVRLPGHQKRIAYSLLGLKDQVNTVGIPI
# Chain of Histone-lysine N-methyltransferase EZH2 (Homo sapiens) (Q15910 whole entry, looked up): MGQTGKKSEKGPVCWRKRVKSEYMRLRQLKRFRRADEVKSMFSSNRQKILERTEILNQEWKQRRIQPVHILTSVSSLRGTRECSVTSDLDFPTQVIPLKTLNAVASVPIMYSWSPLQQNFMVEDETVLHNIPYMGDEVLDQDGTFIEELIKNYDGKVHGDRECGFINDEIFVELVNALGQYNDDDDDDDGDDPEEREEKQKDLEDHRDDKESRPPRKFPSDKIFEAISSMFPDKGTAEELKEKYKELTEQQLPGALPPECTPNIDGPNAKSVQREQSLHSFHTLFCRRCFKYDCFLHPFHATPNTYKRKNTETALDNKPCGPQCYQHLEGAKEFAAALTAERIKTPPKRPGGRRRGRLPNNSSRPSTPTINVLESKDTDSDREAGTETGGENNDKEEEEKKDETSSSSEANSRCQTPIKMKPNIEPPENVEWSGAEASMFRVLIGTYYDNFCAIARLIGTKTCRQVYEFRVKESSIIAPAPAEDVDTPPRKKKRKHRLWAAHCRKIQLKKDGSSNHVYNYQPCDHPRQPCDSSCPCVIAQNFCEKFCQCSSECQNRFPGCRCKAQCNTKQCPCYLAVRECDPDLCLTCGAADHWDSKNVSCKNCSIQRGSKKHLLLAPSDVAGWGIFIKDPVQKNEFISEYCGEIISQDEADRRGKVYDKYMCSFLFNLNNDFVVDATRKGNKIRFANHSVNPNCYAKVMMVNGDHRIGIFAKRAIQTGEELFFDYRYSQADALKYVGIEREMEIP
# Chain of NT-3 growth factor receptor (Q16288 32-839 limits assumed): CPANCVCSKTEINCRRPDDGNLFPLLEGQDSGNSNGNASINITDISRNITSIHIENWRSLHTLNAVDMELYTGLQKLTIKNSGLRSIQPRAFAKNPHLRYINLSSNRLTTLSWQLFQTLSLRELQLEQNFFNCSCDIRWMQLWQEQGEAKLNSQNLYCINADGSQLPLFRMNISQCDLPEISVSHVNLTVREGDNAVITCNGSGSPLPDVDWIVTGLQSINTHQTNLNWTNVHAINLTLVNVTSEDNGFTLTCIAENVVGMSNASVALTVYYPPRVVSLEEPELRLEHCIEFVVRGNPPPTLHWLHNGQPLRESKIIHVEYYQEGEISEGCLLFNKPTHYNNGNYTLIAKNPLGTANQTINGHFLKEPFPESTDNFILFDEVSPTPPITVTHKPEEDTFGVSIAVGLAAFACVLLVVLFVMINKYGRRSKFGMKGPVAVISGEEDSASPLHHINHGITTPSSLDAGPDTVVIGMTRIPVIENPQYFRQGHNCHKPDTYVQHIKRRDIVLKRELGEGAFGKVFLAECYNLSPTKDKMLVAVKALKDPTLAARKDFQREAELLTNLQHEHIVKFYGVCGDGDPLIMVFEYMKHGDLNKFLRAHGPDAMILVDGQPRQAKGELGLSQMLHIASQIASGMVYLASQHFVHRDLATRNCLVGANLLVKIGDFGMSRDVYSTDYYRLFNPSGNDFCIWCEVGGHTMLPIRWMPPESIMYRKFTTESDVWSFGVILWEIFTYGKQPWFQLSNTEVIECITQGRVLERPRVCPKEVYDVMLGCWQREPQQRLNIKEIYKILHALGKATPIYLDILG
# Chain of Dual specificity protein kinase CLK1 (P49759 whole entry, looked up): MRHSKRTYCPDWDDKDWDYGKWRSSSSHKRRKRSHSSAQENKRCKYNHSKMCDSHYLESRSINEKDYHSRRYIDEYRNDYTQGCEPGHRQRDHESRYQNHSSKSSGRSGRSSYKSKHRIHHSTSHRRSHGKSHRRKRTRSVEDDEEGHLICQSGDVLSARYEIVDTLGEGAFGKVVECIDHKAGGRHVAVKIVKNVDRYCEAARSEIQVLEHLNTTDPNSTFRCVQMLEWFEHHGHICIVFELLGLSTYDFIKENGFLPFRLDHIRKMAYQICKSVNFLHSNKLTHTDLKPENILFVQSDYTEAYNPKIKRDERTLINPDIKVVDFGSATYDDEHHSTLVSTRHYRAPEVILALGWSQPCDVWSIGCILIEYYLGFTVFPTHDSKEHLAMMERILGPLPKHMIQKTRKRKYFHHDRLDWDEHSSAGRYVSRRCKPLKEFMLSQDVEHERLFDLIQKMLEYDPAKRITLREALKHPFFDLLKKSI
# Chain of RAC-gamma serine/threonine-protein kinase (Q9Y243 whole entry, canonical isoform): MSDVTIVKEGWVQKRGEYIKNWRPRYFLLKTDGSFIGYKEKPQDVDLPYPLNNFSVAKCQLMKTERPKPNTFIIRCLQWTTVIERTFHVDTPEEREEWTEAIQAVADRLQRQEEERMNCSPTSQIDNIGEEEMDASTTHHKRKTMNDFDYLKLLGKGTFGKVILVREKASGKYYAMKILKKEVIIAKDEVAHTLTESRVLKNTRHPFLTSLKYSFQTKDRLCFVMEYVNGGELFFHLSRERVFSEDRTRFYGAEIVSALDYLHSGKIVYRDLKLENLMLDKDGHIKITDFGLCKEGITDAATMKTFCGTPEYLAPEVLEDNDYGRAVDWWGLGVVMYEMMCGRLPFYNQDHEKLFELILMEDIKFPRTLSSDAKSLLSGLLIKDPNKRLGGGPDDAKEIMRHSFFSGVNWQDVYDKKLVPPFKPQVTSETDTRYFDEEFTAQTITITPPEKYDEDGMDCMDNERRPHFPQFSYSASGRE
# Chain of Serine/threonine-protein kinase PLK3 (Q9H4B4 whole entry, looked up): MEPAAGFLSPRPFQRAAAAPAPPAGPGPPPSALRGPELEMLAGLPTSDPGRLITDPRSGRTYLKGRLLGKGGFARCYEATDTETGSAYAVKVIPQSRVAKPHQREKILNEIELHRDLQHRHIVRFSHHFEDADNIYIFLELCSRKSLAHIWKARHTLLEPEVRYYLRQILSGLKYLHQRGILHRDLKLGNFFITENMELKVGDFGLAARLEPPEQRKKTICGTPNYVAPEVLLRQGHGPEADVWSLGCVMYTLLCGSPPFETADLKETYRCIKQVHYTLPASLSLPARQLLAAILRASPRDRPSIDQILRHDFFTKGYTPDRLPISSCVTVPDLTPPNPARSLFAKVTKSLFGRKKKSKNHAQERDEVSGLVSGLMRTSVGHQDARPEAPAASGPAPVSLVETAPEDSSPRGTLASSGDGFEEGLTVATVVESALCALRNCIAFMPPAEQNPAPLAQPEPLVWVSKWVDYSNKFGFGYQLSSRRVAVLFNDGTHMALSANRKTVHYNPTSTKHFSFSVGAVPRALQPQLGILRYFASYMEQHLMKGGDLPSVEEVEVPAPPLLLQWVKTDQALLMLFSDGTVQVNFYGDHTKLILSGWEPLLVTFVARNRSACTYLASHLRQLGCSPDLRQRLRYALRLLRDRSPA
# Chain of High affinity choline transporter 1 (Homo sapiens) (Q9GZV3 whole entry): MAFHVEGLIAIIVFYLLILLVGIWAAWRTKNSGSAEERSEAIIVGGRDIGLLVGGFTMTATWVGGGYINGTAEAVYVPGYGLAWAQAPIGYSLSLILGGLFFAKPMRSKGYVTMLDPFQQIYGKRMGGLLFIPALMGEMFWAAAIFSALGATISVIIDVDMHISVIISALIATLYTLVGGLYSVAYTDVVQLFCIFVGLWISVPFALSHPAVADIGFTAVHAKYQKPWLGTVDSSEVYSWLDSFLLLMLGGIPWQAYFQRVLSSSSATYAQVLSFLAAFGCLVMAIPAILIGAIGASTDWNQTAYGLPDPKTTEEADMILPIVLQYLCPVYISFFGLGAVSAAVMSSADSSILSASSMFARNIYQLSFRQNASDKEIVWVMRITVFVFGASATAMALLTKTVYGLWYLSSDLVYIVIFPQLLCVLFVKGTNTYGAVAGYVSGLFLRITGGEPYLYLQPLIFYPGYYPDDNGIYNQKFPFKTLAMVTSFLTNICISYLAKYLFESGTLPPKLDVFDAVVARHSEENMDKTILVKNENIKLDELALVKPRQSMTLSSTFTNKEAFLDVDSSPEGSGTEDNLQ
compound,measurement,setting,value
CC(=O)Nc1cccc(-n2c(=O)n(C3CC3)c(=O)c3c(Nc4ccc(I)cc4F)n(C)c(=O)c(C)c32)c1,% of control,[1],91%
same,% of control,[2],103%
COc1cc(N(C)c2ccnc3ccc(C(F)(F)F)cc23)cc(OC)c1OC,% binding,[3],94%
same,% binding,[4],63%
same,% binding,[5],96%
CC(=O)c1cc(-c2ccccc2OCC2CC2)c2ncccn12,% of control,[6],90%
Nc1cnc(N2CCc3cc(S(=O)(=O)Nc4c(F)cc(Cl)cc4F)cc(N4CCCC4=O)c32)nc1 [TP-020n],% of control,[7],100%
C=CC(=O)Nc1ccc(C(=O)Nc2[nH]nc3c2CN(C(=O)N[C@H](CN(C)C)c2ccccc2)C3(C)C)cc1,% of engagement,[8],-2.9%
CN(C)CCCOc1ccc(-c2cc(NCCCn3cccn3)nc(S(C)(=O)=O)n2)cc1,dTM,[9],< 2 K
Cc1cc(CN)cc(C)c1-c1ncn(C)c1-c1cncn1C,dTM,[10],-1.82 K
same,% activity,[11]; at 1 µM,> 90%
same,% activity,[11]; at 10 µM,> 80%
COCC(=O)NC/C=C/c1ccc2ncnc(Nc3ccc(Oc4ccc(C)nc4)c(C)c3)c2c1 [CP-724714],% of control,[12],100%
CCC(=O)N1CCN(c2ccc(-n3c(=O)ccc4cnc5ccc(-c6cnc7ccccc7c6)cc5c43)cc2C(F)(F)F)CC1,% of control,[13],0%
CN(C)C/C=C/C(=O)Nc1ccc(C(=O)N2CCCC(Nc3ncc(Cl)c(-c4c[nH]c5ccccc45)n3)C2)cc1 (centres undefined),% of control,[14],83%
same,% of control,[15],80%
C=CC(=O)Nc1cc(-n2c(=O)ccc3cnc4ccc(-c5ccc(NS(C)(=O)=O)cc5)cc4c32)ccc1C,% of control,[16]; at 1 µM,100%
same,% of control,[16]; at 10 µM,100%
same,% of control,[17]; at 1 µM,95%
same,% of control,[17]; at 10 µM,86%
O[C@H]1CC[C@H](Nc2ncc3nc(Nc4c(F)cc(F)cc4F)n([C@H]4CCOC4)c3n2)CC1,% of control,Insulin receptor,98%
Cc1ccc(-c2ccc3c(ccc4sc5c(c43)NC[C@@H](C)NC5=O)n2)cn1,% of inhibition,[18],8%
same,% of inhibition,[19],-2%
CNC(=O)Nc1ccc(-c2nc(N3CC4CCC(C3)O4)c3cnn(C4CCC5(CC4)OCCO5)c3n2)cc1,% of inhibition,[20],0%
same,% of control,SRSF protein kinase 1,100%
Cc1cc(C)cc([C@@H]2c3cc(C)ccc3NC(=O)CN2C(=O)c2ccc(Br)s2)c1,% of activity,[21]; at 1 µM,101%
same,% of activity,[21]; at 10 µM,92%
C=CC(=O)Nc1cccc(C(=O)Nc2ccc(Nc3cc(-c4[nH]c(SC)nc4C)ccn3)cc2)c1,% of control,[22]; at 1 µM,92%
same,% of control,[22]; at 5 µM,81%

# — ChEMBL document CHEMBL5465560, “Selectivity Literature for EUbOPEN Chemogenomic Library” (2024)
